{
  "source": "patent US20200129514A1",
  "about": "“JAK INHIBITION AS A NOVEL THERAPY FOR PREVENTING TUMORS IN PEUTZ-JEGHERS SYNDROME” (Curingenetics, LLC, priority 2018, published 2020)",
  "molecules": {"B1": {"name": "IL-11: recombinant IL-11, an IL-6 family cytokine signalling via Gp130 (protein, UniProt P20809 22-199, looked up)", "Interleukin-11": "PGPPPGPPRVSPDPRAELDSTVLLTRSLLADTRQLAAQLRDKFPADGDHNLDSLPTLAMSAGALGALQLPGVLTRLRADLLSYLRHVQWLRRAGGSSLKTLEPELGTLQARLDRLLRRLQLLMSRLALPQPPPDPPAPPLAPPSSAWGGIRAAHAILGGLHLTLDWAVRGLLLLKTRL"}},
  "key": {"[1]": {"tested_on": "Lkb1FspKO/FspKO mice (PJS polyps)", "experiment": "Ruxolitinib-containing chow treatment of Lkb1FspKO/FspKO mice, tumor burden after six weeks"}, "Stat3": {"tested_on": "Stat3", "experiment": "Stat3 activation in primary epithelial crypts incubated with recombinant cytokine", "type": "cell-based", "conditions": "primary epithelial crypts isolated from mouse small intestine", "protocol": "(§1) IL-11 signaling is mediated via its binding to the transmembrane receptor Gp130, resulting in activation of the Jak-Stat and MAPK pathways. Of these, the induction of Jak-Stat3 activation appears most critical in GI tumorigenesis. To investigate whether IL-11 is sufficient to induce Stat3 activation in isolated wild-type epithelium, we incubated primary epithelial crypts isolated from mouse small intestine with recombinant IL-11. […] Next, we addressed whether Stat3-dependent transcriptional changes observed in polyps can be induced by IL-11 in primary epithelial organoid cultures. We focused our analysis in Reg3b, Reg3g and Lrg1 genes due to their reported expression in inflammatory epithelium in a Stat3-dependent manner and overexpression in PJS model polyps (Supplemental FIG. 6D, Supplemental Table 3)."}, "[2]": {"tested_on": "Reg3b, Reg3g and Lrg1 expression", "experiment": "Induction of Stat3-dependent genes in primary epithelial organoid cultures", "type": "cell-based", "protocol": "as §1"}},
  "data": [
    {"molecule": "N#CC[C@H](C1CCCC1)n1cc(-c2ncnc3[nH]ccc23)cn1", "note": "[ruxolitinib, Ruxolitinib]", "values": [
      {"measurement": "tumor-free mice", "setting": "[1]; ruxolitinib chow 2 g/kg, 6/11 treated mice, all non-treated mice developed polyps", "value": 55, "unit": "%"},
      {"measurement": "average polyp diameter", "setting": "[1]; ruxolitinib chow, 2.51 in non-treated, p=0.082, not significant", "value": 1.68, "unit": "mm"},
      {"measurement": "average tumor number", "setting": "[1]; ruxolitinib chow, 6.54 in non-treated", "value": 1.27},
      {"measurement": "average tumor area", "setting": "[1]; ruxolitinib chow, 47.4 in non-treated", "value": 3.58, "unit": "mm2"}
    ]},
    {"molecule": "IL-6: IL-6 cytokine used as comparator for Stat3 activation", "values": [
      {"measurement": "activation of Stat3", "setting": "Stat3", "value": "comparably"}
    ]},
    {"molecule": "B1", "values": [
      {"measurement": "induction of Reg3b, Reg3g and Lrg1 expression", "setting": "[2]", "value": "robust induction"},
      {"measurement": "activation of Stat3", "setting": "Stat3", "value": "resulted in activation of Stat3"}
    ]}
  ]
}
